Tests used:
Type in all cases: cell-based
[1] = MTT assay (cytotoxicity), 22Rv1 cells; conditions: human, 22Rv1 cells, 72 h
Method: (§1) MTT assays: LNCaP, 22Rv1, Du145, H1975, A549, MB231 and MCF-7 cells are maintained in RPMI 1640 supplemented with 10% FBS. Cells were seeded at a density of 6-7×10^3 cells per well in 96-well plates. After overnight incubation, cells in fresh RPMI 1640 supplemented with 10% FBS were exposed to DMSO vehicle control or test compounds at designated concentrations for 72 h. Viable cells were evaluated by MTT assays. Experiments were performed in triplicate and repeated at least twice.

[2] = MTT assay (cytotoxicity), LNCaP cells; conditions: human, LNCaP cells, 72 h
Method: as §1

[3] = biological target: T1, endogenous AR T877A mutant in LNCaP cells (Homo sapiens, UniProt P10275, T878A); assay: PSA-luc reporter assay in LNCaP cells (endogenous AR T877A mutant); conditions: PSA-luc, 24 h
T1 construct: LNCaP cells, which express endogenous AR T877A mutant; endogenous in cells; host or cells: LNCaP
T1 sequence (P10275 1-920 T878A): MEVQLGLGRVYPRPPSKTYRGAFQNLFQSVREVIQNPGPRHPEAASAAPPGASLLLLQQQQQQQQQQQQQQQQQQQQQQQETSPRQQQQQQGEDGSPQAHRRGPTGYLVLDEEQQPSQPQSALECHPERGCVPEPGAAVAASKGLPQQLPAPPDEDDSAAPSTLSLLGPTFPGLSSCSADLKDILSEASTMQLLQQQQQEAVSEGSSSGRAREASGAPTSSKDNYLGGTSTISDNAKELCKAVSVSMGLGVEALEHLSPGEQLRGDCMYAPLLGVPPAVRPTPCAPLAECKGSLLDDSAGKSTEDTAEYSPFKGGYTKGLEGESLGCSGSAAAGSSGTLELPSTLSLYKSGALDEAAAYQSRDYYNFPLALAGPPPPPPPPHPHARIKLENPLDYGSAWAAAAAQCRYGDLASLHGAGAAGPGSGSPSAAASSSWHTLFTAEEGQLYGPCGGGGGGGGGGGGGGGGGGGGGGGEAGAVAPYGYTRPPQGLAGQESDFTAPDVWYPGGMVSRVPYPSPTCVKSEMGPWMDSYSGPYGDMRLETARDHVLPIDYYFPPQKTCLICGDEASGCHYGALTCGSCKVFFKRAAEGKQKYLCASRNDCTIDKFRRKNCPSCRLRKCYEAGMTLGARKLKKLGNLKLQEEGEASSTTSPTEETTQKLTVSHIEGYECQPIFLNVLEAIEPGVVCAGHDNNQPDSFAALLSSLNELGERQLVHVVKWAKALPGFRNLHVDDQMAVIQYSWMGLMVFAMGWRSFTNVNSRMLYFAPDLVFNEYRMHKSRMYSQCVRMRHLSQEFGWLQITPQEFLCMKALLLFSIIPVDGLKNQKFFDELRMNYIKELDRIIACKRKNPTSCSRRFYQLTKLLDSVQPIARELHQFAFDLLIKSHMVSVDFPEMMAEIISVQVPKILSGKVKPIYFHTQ
Method: Experiments were in duplicate and repeated three times. […] LNCaP cells in whole medium were exposed to DMSO vehicle control or compounds for 24 h.

[4] = MTT assay (cytotoxicity), DU145 cells; conditions: human, DU145 cells
Method: as §1

Row | SMILES | IC50 at 72 h ([1]; Table 2.4) | IC50 at 72 h ([2]; Table 2.4) | IC50 at 72 h ([4]; Table 2.4) | IC50 at 72 h ([1]; Table 2.3) | IC50 at 72 h ([2]; Table 2.3) | IC50 at 72 h ([4]; Table 2.3) | also measured
1 | O=C(N/C=C/c1cccc(C(F)(F)F)c1)NCc1ccc([N+](=O)[O-])cc1 [Compound 447] | 7.5 µM | 7.5 µM | 8 µM | – | – | – | effect of increasing DHT from 1 nM to 10 nM on inhibitory activity in LNCaP cells [3]: not competed out
2 | CC(C)(C)OC(=O)n1cnc(/C=C/NC(=O)Nc2ccc([N+](=O)[O-])c(C(F)(F)F)c2)c1 [Compound 453] | > 20 µM | 4 µM | > 20 µM | – | – | – | –
3 | O=C(N/C=C/c1ccc([N+](=O)[O-])c(C(F)(F)F)c1)NCc1cccc(C(F)(F)F)c1 [Compound 461] | 3.4 µM | 2.4 µM | 3.4 µM | – | – | – | –
4 | O=C(N/C=C/c1cc(C(F)(F)F)cc(C(F)(F)F)c1)Nc1ccc2ncccc2c1 [Compound 515] | – | – | – | > 10 µM | > 10 µM | > 10 µM | –
5 | O=C(N/C=C/c1cc(C(F)(F)F)ccc1C(F)(F)F)Nc1ccc2ncccc2c1 [Compound 517] | – | – | – | > 10 µM | 3.4 µM | 6.2 µM | –
6 | O=C(N/C=C/c1cccc(C(F)(F)F)c1)Nc1ccc2[nH]ccc2c1 [Compound 520] | – | – | – | > 10 µM | 6.5 µM | > 10 µM | –
7 | O=C(Nc1cccc(C(F)(F)F)c1)Nc1ccc2[nH]ccc2c1 [Compound 522] | – | – | – | – | – | – | IC50 at 72 h ([1]; Table 4.1): > 10 µM; IC50 at 72 h ([2]; Table 4.1): > 10 µM; IC50 at 72 h ([4]; Table 4.1): > 10 µM
8 | O=C(N/C=C/c1cc(C(F)(F)F)cc(C(F)(F)F)c1)Nc1cnc2ccccc2c1 [Compound 523] | – | – | – | 8.4 µM | 8 µM | 10 µM | –
9 | O=C(N/C=C/c1cc(C(F)(F)F)ccc1C(F)(F)F)Nc1cnc2ccccc2c1 [Compound 524] | – | – | – | 8.4 µM | 3.4 µM | 7.4 µM | –
10 | O=C(N/C=C/c1cccc(C(F)(F)F)c1)Nc1cnc2ccccc2c1 [Compound 525] | – | – | – | > 10 µM | > 10 µM | > 10 µM | –
